# The source made the active and inactive calls. The rule behind the calls is not given here.
# Key:
# [1] = test system: MX1; assay: Induction of cell cycle arrest in human MX1 cells assessed as increase in CDK6 expression at 0.5 to 2 uM by Western blotting analysis; type: functional, cell-based; settings: dose 0.5-2 µM, time 24.0 hrs
# [2] = test system: MX1; assay: Induction of apoptosis in human MX1 cells assessed as early apoptotic cells measured at 0.5 uM after 48 hrs by FITC-Annexin-V and propidium iodide based flow cytometric analysis (reference value: 6.30%); type: functional
# [3] = test system: MDA-MB-231; assay: Induction of apoptosis in human MDA-MB-231 cells assessed as necrotic cells measured at 0.5 uM after 48 hrs by FITC-Annexin-V and propidium iodide based flow cytometric analysis (reference value: 0.253 %); type: functional
# [4] = test system: MDA-MB-231; assay: Induction of apoptosis in human MDA-MB-231 cells assessed as early apoptotic cells measured at 2 uM after 48 hrs by FITC-Annexin-V and propidium iodide based flow cytometric analysis (reference value: 2.71%); type: functional
# [5] = test system: MDA-MB-231; assay: Induction of apoptosis in human MDA-MB-231 cells assessed as viable cells measured at 5 uM after 48 hrs by FITC-Annexin-V and propidium iodide based flow cytometric analysis (reference value: 94.4% ); type: functional; settings: read-out: Activity
# [6] = test system: MDA-MB-231; assay: Induction of apoptosis in human MDA-MB-231 cells assessed as early apoptotic cells measured at 5 uM after 48 hrs by FITC-Annexin-V and propidium iodide based flow cytometric analysis (reference value: 2.71%); type: functional
# [7] = test system: MX1; assay: Inhibition of PI3K/Akt signaling in human MX1 cells assessed as decrease in phosphorylated S6 expression incubated for 24 hrs by Western blotting analysis; type: cell-based; settings: dose 0.5-5 µM
compound,measurement,setting,value
CC1(C)C=Cc2c(c(/C=C/C(=O)NCCOc3no[n+]([O-])c3S(=O)(=O)c3ccccc3)cc3c2[nH]c2ccc(C(C)(C)C)cc23)O1,Activity,[1],Active
same,Activity,[2],39.8%
same,Activity,[3],0.644%
same,Activity,[4],10.8%
same,viability at 5 µM,[5],47.1%
same,Activity,[6],31.2%
same,inhibition,[7],Dose-Dependent Effect
